≈ marks a conversion by molar mass, not a printed value. Calls of active or inactive are those of the source. No cut-off for these calls is given here.
How the values were obtained:
P388 [1] = assay: Cytotoxicity against mouse P388 cells; assay type: functional, cell-based
[2] = Cytotoxicity against mouse B16-F1 cells; assay type: functional, cell-based
P388 [3] = assay: In vivo cytotoxicity against mouse P388 cells; assay type: functional, organism-based

Structure (SMILES) | IC50 (P388 [1]) [µg/mL] | IC50 [2] [µg/mL] | Activity (P388 [3])
CCCC(CC)CC(C)Cc1cc(CC)c(CC(=O)O)o1 (stereo not drawn) [GLNVILLIC ACID B] | > 20 | – | –
COC(=O)C[C@@H]1OO[C@@](C)(/C(C)=C/C=C/Cc2ccccc2)C[C@H]1C [METHYL CAPUCINOATE A] | – | 12 (≈ 34.8 µM) | inactive
CC/C=C/C(CC)CC(C)Cc1cc(CC)c(CC(=O)O)o1 (stereo not drawn) [GLANVILLIC ACID A] | > 20 | – | –
COC(=O)C[C@@H]1OO[C@@](C)(/C(C)=C/C(C)=C/Cc2ccccc2)C[C@H]1C | – | 12 (≈ 33.5 µM) | inactive
CC/C=C/C(CC)CC(C)CC1(CC)C=C(CC)C(C(=O)O)OO1 (stereo not drawn) | 0.055 (≈ 0.162 µM) | – | inactive
